From PubChem BioAssay AID2769 (The Scripps Research Institute Molecular Screening Center, 2010) come the findings set out here.

The structures appear in SMILES notation.

By IC50 is commonly meant the concentration that inhibits the measured activity by half.

For the experiment, the target named is VIM-2 metallo-beta-lactamase (Pseudomonas aeruginosa) (UniProt Q9K2N0). Description: inhibition of VIM-2 nitrocefin hydrolysis – biochemical, epi-absorbance, dose response, late-stage follow-up (AID 2769). The following applies: purified VIM-2, nitrocefin absorbance hydrolysis.
`O=C(O)c1ccc[c]([Hg+])c1`: the concentration for half-maximal inhibition (IC50) was 817 nM.
With `O=C(O)c1cc[c]([Hg][Cl])cc1`, the IC50 was 2590 nM.
Next, `[Hg+][c]1ccccc1`: 1000 nM; `Cc1cc[c]([Hg+])cc1`: 814 nM; `CC(=O)Nc1cc[c]([Hg+])cc1`: 2580 nM.
